Results: patent US3980794A, “Method for promoting growth of poultry with 3-(5-nitro-2-imidazolyl)pyrazoles” (Eli Lilly and Company, priority 1975, dated 1976)
Values after ≈ are worked out from the molar mass of the structure shown. Read-outs that look alike come from different tables or passages of the source.

Tests used:
Treponema hyodysenteriae [1] = system: Treponema hyodysenteriae
[2] = Growth promotion efficacy in broiler chicks (Experiment 7); type: in vivo; settings: for F/G (feed conversion) / Wt. Gn. (average weight gain) / % Impr. in feed conversion / % Impr. in weight gain: 21 days; for % Impr. in feed conversion / % Impr. in weight gain: compared to contemporary control
Description: 5-Amino-1-methyl-3-(1-methyl-5-nitro-2-imidazolyl)pyrazole-4-carbonitrile, compound 1, was fed to broiler chicks to evaluate its growth promotion efficacy.
The compound was fed at levels of 10, 25 and 50 g./ton of typical broiler rations (set forth below) to a total of 120 replicates of 8 birds each in four time-replicated studies.
All the birds in the tests were pre-brooded for seven days in floor pens before being placed on treatment. The treatment period extended for 21 days in starter batteries. Feed and water were provided ad libitum at all times. A nontreated feed was fed during the pre-brood period.
The results of the studies are presented in Chart 8. In the chart, column 1 gives the identification of the test compound; column 2, the level of administration of the test compound in the feed; column 3, the number of replicates per treatment; column 4, the average weight gain in grams; column 5, the percent improvement in weight gain; column 6, the feed conversion, which is the ratio of the feed consumed (F) to the weight gained (G); and column 7, the percent improvement in feed conversion.
All 10 and 50 g. data were obtained using Diet 1. The 25 g. data were obtained using Diet 1 (25%) and Diet 2 (75%).

Treponema hyodysenteriae [3] = assay: In vitro activity against Treponema hyodysenteriae (Experiment 8); type: cell-based; settings: Brachyspira hyodysenteriae; repeat test, doubling dilutions 100 to 0.048 mcg./ml.; read-out: minimum inhibitory concentration (MIC)
Description: A number of representative compounds, namely, 1, 5, 6, 7, 12, 13D, 14, and 18, were tested for their in vitro activity against Treponema hyodysenteriae. The treponema were propagated on blood agar plates. Each plate which was prepared contained 20 ml. of trypticase soy agar (Baltimore Biological Laboratory [BBL]) with 5.0 g./l. of yeast extract (Difco) and 5 percent sterile defibrinated horse blood. The plates were sterile plastic 15 × 100 mm. petri plates. Incubation was carried out at 37°C. for 4 days under anaerobic conditions using the BBL Gas Pak system.
The concentrations of test compounds in this initial test were prepared in dilutions ranging from 2000 mcg./ml. to 7.8 mcg./ml. The test procedure was carried out in the following manner. Five ml. of a twenty-fold concentration in tryptose broth (Difco) of each filter-sterilized test compound dilution was mixed in a series of flasks containing 90 ml. of melted trypticase soy agar with yeast extract. Five ml. of horse blood was then added per flask. The contents of these flasks were then used to prepare a series of blood agar plates in doubling decreasing dilutions ranging from 100 mcg./ml. to 0.39 mcg./ml.
The treponema for inoculation of these plates were obtained by adding 3.0 ml. of sterile tryptose broth to the surface of a plate on which the treponema had been propagated. […]

Salmonella choleraesuis = assay: In vivo activity against Salmonella choleraesuis in pigs (Experiment 14)
Description: The in vivo activity of compound 1 against Salmonella choleraesuis was determined in the following manner.
Twenty-four healthy feeder pigs were purchased from a local farm and brought to the research facility where they were weighed individually and identified by ear tag. Four groups of six pigs each were formed so that the average pig weight per group was similar.
Two groups of pigs were given compound 1 at a level of 50 g./ton in the feed. The remaining two groups of pigs were fed the same basal ration without compound 1. Twenty-four hours after initiation of the compound 1 feed treatment, all four groups were challenged orally using 10 ml. of a broth culture of Salmonella choleraesuis.
The pigs were weighed weekly throughout the duration of the experiment and on the 28th day postsalmonella challenge, each surviving pig was killed and the salmonella-caused lesions were recorded. Chart 14, which follows, contains a summary of the results from the trial.

[4] = 100 g./ton in feed, all medicated pigs
[5] = 25 g./t. fed, Diet 1 (25%) and Diet 2 (75%)
[6] = 50 g./ton continuous, total of both replicates

Cn1nc(-c2ncc([N+](=O)[O-])n2C)c(C#N)c1N [Compound 1, 5-Amino-1-methyl-3-(1-methyl-5-nitro-2-imidazolyl)pyrazole-4-carbonitrile]
blood and/or mucus in the colon at necropsy (Treponema hyodysenteriae [1]; 100 g./ton in feed): not found in the colon of any pig | Days with Blood and Mucus in Pen (Treponema hyodysenteriae [1]; 100 g./ton in feed, Group 1): 0 | Days with Diarrhea in Pen (Treponema hyodysenteriae [1]; 100 g./ton in feed, Group 1): 0 | Initial Wt. (at time of challenge) (Treponema hyodysenteriae [1]; 100 g./ton in feed, Group 1): 35.3 | Mortality (No. Died) (Treponema hyodysenteriae [1]; 100 g./ton in feed, Group 1): 0 | Avg. Wt. of Pigs, Survivors (Treponema hyodysenteriae [1]; 100 g./ton in feed, Group 1, day 7): 43.3 | Avg. Wt. of Pigs, Survivors (Treponema hyodysenteriae [1]; 100 g./ton in feed, Group 1, day 14): 51.0 | Avg. Wt. of Pigs, Survivors (Treponema hyodysenteriae [1]; 100 g./ton in feed, Group 1, day 19): 57.3 | Avg. Gain (Survivors) From Day Of Challenge (Treponema hyodysenteriae [1]; 100 g./ton in feed, Group 1, killed 19 days post-challenge): 22.0 lb. | Days with Blood and Mucus in Pen (Treponema hyodysenteriae [1]; 100 g./ton in feed, Group 2): 0 | Days with Diarrhea in Pen (Treponema hyodysenteriae [1]; 100 g./ton in feed, Group 2): 0 | Initial Wt. (at time of challenge) (Treponema hyodysenteriae [1]; 100 g./ton in feed, Group 2): 35.3 | Mortality (No. Died) (Treponema hyodysenteriae [1]; 100 g./ton in feed, Group 2): 0 | Avg. Wt. of Pigs, Survivors (Treponema hyodysenteriae [1]; 100 g./ton in feed, Group 2, day 7): 42.1 | Avg. Wt. of Pigs, Survivors (Treponema hyodysenteriae [1]; 100 g./ton in feed, Group 2, day 14): 50.0 | Avg. Wt. of Pigs, Survivors (Treponema hyodysenteriae [1]; 100 g./ton in feed, Group 2, day 21): 59.7 | Avg. Wt. of Pigs, Survivors (Treponema hyodysenteriae [1]; 100 g./ton in feed, Group 2, day 28): 71.2 | Avg. Gain (Survivors) From Day Of Challenge (Treponema hyodysenteriae [1]; 100 g./ton in feed, Group 2, killed 28 days post-challenge): 35.9 lb. | deaths during the trial (Treponema hyodysenteriae [1]; [4]): None of the pigs receiving the test compound died | diarrhea (Treponema hyodysenteriae [1]; [4]): not detected | mucus and blood in feces (Treponema hyodysenteriae [1]; 100 g./ton in feed, whole trial): not observed at any time during the trial | control of induced swine dysentery (Treponema hyodysenteriae [1]; 100 g./ton in feed, overall conclusion): highly effective | control of Treponema hyodysenteriae in swine (Treponema hyodysenteriae [1]; compound 1 in the feed about 100 g./ton): effective in the control of Treponema hyodysenteriae in swine | slight areas of hemorrhage in the colon and/or stomach (Treponema hyodysenteriae [1]; pig, in vivo): seen in most of the pigs | recurrence of swine dysentery (Treponema hyodysenteriae [1]; replicate 2, unmedicated ration day 17 until day 28): not observed | F/G (feed conversion) ([2]; 10 g./t. fed, Diet 1): 1.580 | Wt. Gn. (average weight gain) ([2]; 10 g./t. fed, Diet 1): 580 g | % Impr. in feed conversion ([2]; 10 g./t. fed): 2.35% | % Impr. in weight gain ([2]; 10 g./t. fed): 4.50% | F/G (feed conversion) [2, 5]: 1.751 | Wt. Gn. (average weight gain) [2, 5]: 468 g | % Impr. in feed conversion ([2]; 25 g./t. fed): 4.68% | % Impr. in weight gain ([2]; 25 g./t. fed): 6.12% | F/G (feed conversion) ([2]; 50 g./t. fed, Diet 1): 1.578 | Wt. Gn. (average weight gain) ([2]; 50 g./t. fed, Diet 1): 564 g | % Impr. in feed conversion ([2]; 50 g./t. fed): 4.54% | % Impr. in weight gain ([2]; 50 g./t. fed): 3.87% | growth promoter effectiveness ([2]; oral to chicks, compound 1 at about 10 to about 50 g. per ton of feed): effective as a growth promoter | MIC (Treponema hyodysenteriae [3]): 0.097 µg/mL (≈ 0.392 µM) | mortality (Salmonella choleraesuis; 50 g./ton continuous): prevented mortality | Mean Pig Wt. (Salmonella choleraesuis; 50 g./ton continuous, Avg., day 0): 30.0 Lbs. | Mean Pig Wt. (Salmonella choleraesuis; 50 g./ton continuous, Avg., day 7): 31.8 Lbs. | Mean Pig Wt. (Salmonella choleraesuis; 50 g./ton continuous, Avg., day 14): 33.5 Lbs. | Mean Pig Wt. (Salmonella choleraesuis; 50 g./ton continuous, Avg., day 21): 39.4 Lbs. | Mean Pig Wt. (Salmonella choleraesuis; 50 g./ton continuous, Avg., day 28): 45.5 Lbs. | Lesions at Necropsy (Salmonella choleraesuis; 50 g./ton continuous, Rep. 1): 2/6 | No. Dead/No. in Grp. (Salmonella choleraesuis; 50 g./ton continuous, Rep. 1): 0/6 | Mean Pig Wt. (Salmonella choleraesuis; 50 g./ton continuous, Rep. 1, day 0): 30.2 Lbs. | Mean Pig Wt. (Salmonella choleraesuis; 50 g./ton continuous, Rep. 1, day 7): 32.5 Lbs. | Mean Pig Wt. (Salmonella choleraesuis; 50 g./ton continuous, Rep. 1, day 14): 33.8 Lbs. | Mean Pig Wt. (Salmonella choleraesuis; 50 g./ton continuous, Rep. 1, day 21): 38.8 Lbs. | Mean Pig Wt. (Salmonella choleraesuis; 50 g./ton continuous, Rep. 1, day 28): 44.2 Lbs. | Lesions at Necropsy (Salmonella choleraesuis; 50 g./ton continuous, Rep. 2): 1/6 | No. Dead/No. in Grp. (Salmonella choleraesuis; 50 g./ton continuous, Rep. 2): 0/6 | Mean Pig Wt. (Salmonella choleraesuis; 50 g./ton continuous, Rep. 2, day 0): 29.7 Lbs. | Mean Pig Wt. (Salmonella choleraesuis; 50 g./ton continuous, Rep. 2, day 7): 31.0 Lbs. | Mean Pig Wt. (Salmonella choleraesuis; 50 g./ton continuous, Rep. 2, day 14): 33.2 Lbs. | Mean Pig Wt. (Salmonella choleraesuis; 50 g./ton continuous, Rep. 2, day 21): 40.0 Lbs. | Mean Pig Wt. (Salmonella choleraesuis; 50 g./ton continuous, Rep. 2, day 28): 46.7 Lbs. | improved weight gain over that of infected pigs (Salmonella choleraesuis; 50 g./ton continuous, average): 4.3 lbs./pig | Lesions at Necropsy (Salmonella choleraesuis; [6]): 3/12 | No. Dead/No. in Grp. (Salmonella choleraesuis; [6]): 0/12 | control of Salmonella choleraesuis in swine (Salmonella choleraesuis; compound 1 in the feed about 50 g./ton): effective in the control of Salmonella choleraesuis in swine
